Source: US12479858B2, “Macrocyclic compounds as sting agonists and methods and uses thereof” (Lupin Limited, priority 2019, dated 2025)
Counter-ions that a name gives are not always drawn. Like-named read-outs stand apart in the source and are kept apart here.

Assays:
[1] = Apparent solubility/extended kinetic solubility by UHPLC; assay type: physicochemical; conditions: aqueous buffer, thermodynamic from solid, phosphate buffer, 37° C.
Summary of the method: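 About 0.5 mg solid sample, in duplicate, with 5 μL DMSO and 1 mL phosphate buffer, shaken 24 hrs at 37° C, then cooled and centrifuged. Supernatant quantified by UHPLC against a calibration curve; solubility reported in μM.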

[2] = Plasma and tumor compound concentrations in CT26 tumor-bearing mice (LC-MS/MS); assay type: in vivo, BALB/c mice; conditions: 0.375 mg/kg single i.v.; for concentration at 3.5 h / concentration at 8 h / concentration at 12 h / concentration at 24 h: BALB/c, mouse, intravenous; for concentration at 3.5 h: 3.5 h (Table 4); for concentration at 8 h: 8 h (Table 4); for concentration at 12 h: 12 h (Table 4)
Description: (§1) Pharmacokinetic and Pharmacodynamic Profiling and Estimation of Immune Cell Infiltration in Tumors Following Treatment with Compounds 2, 6, 8, 12 and 14
(§2) Serum and tumor cytokine levels and corresponding compound concentrations in mouse plasma were determined following single-dose intravenous administration in CT26 (murine colorectal carcinoma) tumor-bearing mice. Briefly, naïve BALB/c mice in the age group of 6-8 weeks were inoculated with 0.1 million CT-26 cells/animal in phosphate buffered saline (PBS), subcutaneously. […] Blood and tumor samples were harvested at various time points up to 24 h post-dose. Tumor samples were homogenized and prepared for cytokine estimation (ELISA) and compound concentration were determined by LC-MS/MS. Serum aliquots and tumor samples were snap-frozen and stored at −80° C. till further analysis. Serum and tumor samples were evaluated for Interferon beta (IFNβ), interleukin-6 (IL-6) and tumor necrosis factor alpha (TNFα) by enzyme linked immunosorbent assay (ELISA) using kits from R & D systems (Quantikine mouse IL-6 and TNFα kits) and PBL biosciences (Verikine mouse IFNβ kit).
Bioanalysis of plasma and tumor samples: Plasma and tumor concentrations of test compounds were determined by LC-MS/MS method. Tumor samples were homogenized utilizing a bead-based homogenizer. Plasma samples and tumor homogenates were extracted using protein precipitation method with organic solution containing respective internal standards. Plasma and tumor concentrations were determined against respective calibration curve. Table 3 indicates the concentration of Compound 2 in plasma and tumor at different administered doses. Table 4 indicates the concentration of Compounds 6, 8, 12, and 14 in plasma and tumor at different administered doses. Table 5 indicates cytokine levels for Compound 2 in serum and tumor at different doses. Table 6 indicates cytokine levels for Compounds 6, 8, 12 and 14 in serum and tumor at 0.375 mpk.

[3] = system: Interferon beta (IFNβ), interleukin-6 (IL-6) and tumor necrosis factor alpha (TNFα); test: Serum and tumor cytokine levels in CT26 tumor-bearing mice (ELISA); assay type: in vivo, BALB/c mice; conditions: 0.375 mg/kg single i.v.
Description: as §1, §2
Cytokine analysis from mouse serum samples: For IL-6 and TNFα estimation, 50 μL of test samples or internal standard or control were applied to wells in duplicates and incubated for 2 h at room temperature, followed by aspiration and washing four times with 400 μL of wash buffer. 100 μL of mouse IL-6 or TNFα conjugate solution was added and incubated further for 2 h at room temperature and followed later by 4 wash cycles. 100 μL of substrate solution was added to each well with addition of stop solution after 30 min. Optical density was measured at 450 nm averaged and was used for further calculations following subtraction of respective blank controls. Cytokine concentrations were determined by interpolating the optical density of samples into the reference standard curve utilizing four parameter logistic (4-PL) curve-fit. Cytokine concentrations were normalized with their respective dilution factors and represented in pg/mL. For IFNβ estimation, 100 μL test sample or internal standard or controls were applied to the wells in duplicates and incubated for 1 h at room temperature followed by three washes and addition of the anti-mouse IFNβ antibody solution with further 1 h incubation. This was followed by addition of horseradish peroxidase (HRP) solution and three washes, later addition of TMB substrate and reading the optical density at 450 nm. Optical densities were blank-subtracted and interpolated to the reference standard utilizing the four parameter logistic (4-PL) curve-fit. Cytokine concentrations were normalized with their respective dilution factors and represented in pg/mL. Tables 4 and 5 indicate cytokine levels for compounds 2, 6, 8, 12, and 14 in serum and tumor at different administered doses.
Cytokine analysis from tumor samples: Tumor samples were homogenized in a bead-based homogenizer and lysates were prepared with buffer supplemented with 1% Triton X-100 and protease inhibitors. Cytokine levels were estimated by ELISA and expressed as pg/g tumor.

[4] = tumor, 24 h (Table 4), read-out: Tumor Conc.

| Tumor Conc. ([2]; 24 h (Table 4)) | Structure (SMILES) | solubility at 24 h [1] | Plasma Conc. ([2]; 24 h (Table 4)) | concentration at 3.5 h ([2]; plasma, read-out: Plasma Conc.) | concentration at 8 h ([2]; plasma, read-out: Plasma Conc.) | concentration at 12 h ([2]; plasma, read-out: Plasma Conc.) | concentration at 3.5 h ([2]; tumor, read-out: Tumor Conc.) | concentration at 8 h ([2]; tumor, read-out: Tumor Conc.) | concentration at 12 h ([2]; tumor, read-out: Tumor Conc.) | Serum IFNβ ([3]; 3.5 h (Table 6)) | Tumor IFNβ ([3]; 3.5 h (Table 6)) | Serum IFNβ ([3]; 8 h (Table 6)) | Tumor IFNβ ([3]; 8 h (Table 6)) | Serum IFNβ ([3]; 12 h (Table 6)) | Tumor IFNβ ([3]; 12 h (Table 6)) | Serum IFNβ ([3]; 24 h (Table 6)) | Tumor IFNβ ([3]; 24 h (Table 6)) | concentration at 24 h ([2]; plasma, 24 h (Table 4), read-out: Plasma Conc.) | concentration at 24 h [2, 4] |
| --- | --- | --- | --- | --- | --- | --- | --- | --- | --- | --- | --- | --- | --- | --- | --- | --- | --- | --- | --- |
| BLQ | CCn1nc(C)cc1C(=O)Nc1nc2cc(C(N)=O)cc3c2n1C/C=C/Cn1c(NC(=O)c2cc(C)nn2CC)nc2cc(C(=O)NCCCn4cc(C(=O)O)cn4)cc(c21)OCCCO3 [Compound 8, (E)-1-(3-(12-carbamoyl-1,15-bis(1-ethyl-3-methyl-1H-pyrazole-5-carboxamido)-8,9,16,19-tetrahydro-7H-6,10-dioxa-2,14,15a,19a-tetraazacyclopentadeca[3,2,1-cd:8,9,10-c′d′]diindene-4-carboxamido)propyl)-1H-pyrazole-4-carboxylic acid sodium salt] | 5.23 mM | BLQ | 40 ± 10 nM | 20 ± 10 nM | 20 ± 10 nM | 90 ± 10 nM | 60 ± 10 nM | 60 nM | 20553 ± 3011.24 pg/mL | 7975 ± 1164.2 pg/g tumor | 307 ± 64.6 pg/mL | 1182 ± 321.2 pg/g tumor | 43 ± 33.5 pg/mL | 284 ± 84.2 pg/g tumor | BLQ | 197 ± 84.7 pg/g tumor |  |  |
|  | CCn1nc(C)cc1C(=O)Nc1nc2cc(C(N)=O)cc3c2n1C/C=C/Cn1c(NC(=O)c2cc(C)nn2CC)nc2cc(C(=O)N[C@H]4CC[C@H](c5nnn[nH]5)CC4)cc(c21)OC[C@@H](N1C2CCC1COC2)CO3 [Compound 12, (8S,E)-N4-((1R,4S)-4-(1H-tetrazol-5-yl)cyclohexyl)-8-(3-oxa-8-azabicyclo[3.2.1]octan-8-yl)-1,15-bis(1-ethyl-3-methyl-1H-pyrazole-5-carboxamido)-8,9,16,19-tetrahydro-7H-6,10-dioxa-2,14,15a,19a-tetraazacyclopentadeca[3,2,1-cd:8,9,10-c′d′]diindene-4,12-dicarboxamide sodium salt] | 14.2 mM |  | 440 ± 50 nM | 180 ± 50 nM | 90 ± 20 nM | 360 ± 130 nM | 190 ± 80 nM | 300 ± 120 nM | 4248 ± 706 pg/mL | 6190 ± 687.0 pg/g tumor | 568 ± 48.6 pg/mL | 1144 ± 128.9 pg/g tumor | 16 ± 15.7 pg/mL | 789 ± 378.2 pg/g tumor | BLQ | 94 ± 48.3 pg/g tumor | 20 nM | 130 ± 40 nM |
|  | CCn1nc(C)cc1C(=O)Nc1nc2cc(C(N)=O)cc3c2n1C/C=C/Cn1c(NC(=O)c2cc(C)nn2CC)nc2cc(C(=O)N[C@H]4CC[C@H](C(=O)O)CC4)cc(c21)OC[C@@H](N1C2CCC1COC2)CO3 [Compound 14, (1S,4R)-4-((8S,E)-8-(3-oxa-8-azabicyclo[3.2.1]octan-8-yl)-12-carbamoyl-1,15-bis(1-ethyl-3-methyl-1H-pyrazole-5-carboxamido)-8,9,16,19-tetrahydro-7H-6,10-dioxa-2,14,15a,19a-tetraazacyclopentadeca[3,2,1-cd:8,9,10-c′d′]diindene-4-carboxamido)cyclohexane-1-carboxylic acid sodium salt] | 6.8 mM | BLQ | 450 ± 70 nM | 90 ± 10 nM | 70 ± 60 nM | 170 ± 20 nM | 130 ± 20 nM | 160 ± 60 nM | 768 ± 330.8 pg/mL | 2433 ± 653.8 pg/g tumor | 415 ± 8.7 pg/mL | 2137 ± 261.8 pg/g tumor | 5 ± 5 pg/mL | 752 ± 126.6 pg/g tumor | BLQ | 380 ± 239 pg/g tumor |  | 180 ± 60 nM |
